This note sets out measurements from patent EP4707275A1, “NOVEL COMPOUND COMPRISING N-METHYLPIPERAZINE ETHANOL CARBAMATE STRUCTURE AND USE THEREOF” (Korea Institute of Radiological & Medical Sciences, priority 2023, dated 2024).

In test [1] the test system is idiopathic pulmonary fibrosis induced by bleomycin. Kind of test: Inhibitory effect on idiopathic pulmonary fibrosis induced by bleomycin in mice (Micro-CT, H&E and Masson's Trichrome staining, survival). It is filed as in vivo, C57BL/6 mice. The note with it: oral once daily for two weeks from day 14, nintedanib 60 mg/kg, vs untreated group; for degree of fibrosis (Micro-CT imaging): 4 weeks after bleomycin 1.5 U/kg; for degree of inflammation and fibrosis (H&E and Masson's Trichrome staining) / survival rate: bleomycin 1.5 U/kg; for survival rate: Example 5, FIG. 9. The procedure: Each drug was administered starting 14 days after the administration of bleomycin. The drug was orally administered at a dose of 20 mg/kg once daily for two weeks (a total of 13 administrations). The control drug, nintedanib, was administered at a dose of 60 mg/kg, and the co-administration group was orally administered nintedanib (60 mg/kg) together with DCTP (20 mg/kg) once daily for two weeks (a total of 13 administrations).
The results of H&E and Masson's Trichrome staining performed to evaluate the degree of inflammation and fibrosis are shown in FIG. 3.
Each drug was administered starting 14 days after the administration of bleomycin. Nintedanib and PXDP were each orally administered at a dose of 60 mg/kg once daily for two weeks (a total of 13 administrations), and the group treated with the combination was orally administered nintedanib (60 mg/kg) together with PXDP (60 mg/kg) once daily for two weeks (a total of 13 administrations).
The results of H&E and Masson's Trichrome staining performed to evaluate the degree of inflammation and fibrosis are shown in FIG. 8.
In addition, the mouse survival rate was compared in FIG. 9.

Test [2] has as its system radiation-induced pulmonary fibrosis. Briefly: Inhibitory effect on radiation-induced pulmonary fibrosis in mice (Micro-CT, H&E and Masson's Trichrome staining). It is filed as in vivo, C57BL/6 mice. The settings on record: 2 weeks after radiation exposure (SBRT 90 Gy), oral, nintedanib 60 mg/kg once daily, vs untreated group. The procedure: One hour before stereotactic body radiation therapy (SBRT; 90 Gy, 4 mm collimator), DCTP and nintedanib, an FDA-approved drug known to inhibit pulmonary fibrosis, were orally administered to seven-week-old male C57BL/6 mice. The degree of pulmonary fibrosis and the inhibitory effect on radiation-induced lung injury were observed two weeks after radiation exposure. The DCTP drug was administered at a dose of 30 mg/kg, and nintedanib was administered once daily (o.d.) at a dose of 60 mg/kg. In addition, to analyze the degree of inflammatory response and the degree of fibrosis two weeks after radiation exposure, H&E staining and Masson's Trichrome staining were performed, and the results are shown in FIG. 5. One hour prior to stereotactic body radiation therapy (SBRT; 90 Gy, 4 mm collimator), PXDP and nintedanib, an FDA-approved drug known to inhibit pulmonary fibrosis, were orally administered to seven-week-old male C57BL/6 mice. The degree of pulmonary fibrosis and the inhibitory effect on radiation-induced lung injury were observed two weeks after radiation exposure. The PXDP drug was administered at a dose of 100 mg/kg, and nintedanib was administered once daily (o.d.) at a dose of 60 mg/kg. To analyze the degree of inflammatory response and the degree of fibrosis 2 weeks after radiation exposure, H&E staining and Masson's Trichrome staining were performed, and the results are shown in FIG. 11.

Setting [3] is: Example 5, FIG. 7, PXDP 60 mg/kg.
The mark [4] stands for this setting: Example 5, FIG. 8, PXDP 60 mg/kg.
Where [5] appears, read: Example 3, FIG. 5, DCTP 30 mg/kg.
Setting [6] is: Example 6, FIG. 10, PXDP 100 mg/kg.
[7] abbreviates: Example 6, FIG. 11, PXDP 100 mg/kg.

`COC(=O)c1ccc2c(c1)NC(=O)/C2=C(\Nc1ccc(N(C)C(=O)CN2CCN(C)CC2)cc1)c1ccccc1` [nintedanib]: the “degree of fibrosis (Micro-CT imaging)” value was “reduction in the degree of fibrosis” in test [1] (Example 2, FIG. 2, DCTP 20 mg/kg); “reduction in the degree of fibrosis” in test [1] (setting [3]); “reduction in the degree of fibrosis” in test [2] (Example 3, FIG. 4, DCTP 30 mg/kg); “reduction in the degree of fibrosis” in test [2] (setting [6]). The “degree of inflammation and fibrosis (H&E and Masson's Trichrome staining)” value in test [1] (Example 2, FIG. 3, DCTP 20 mg/kg) was “alleviation of pulmonary fibrosis and inflammation”; in test [1] (setting [4]), “alleviation of pulmonary fibrosis and inflammation”. Besides, in test [1] (PXDP 60 mg/kg), the survival rate result is given as “survival rate increased”. Also, the “degree of inflammation and degree of fibrosis (H&E and Masson's Trichrome staining)” value in test [2] (setting [5]) is “reduction in fibrosis and inflammation in the lungs”; in test [2] (setting [7]), “alleviation of fibrosis and inflammation in the lungs”.
Take `CN1CCN(CCOC(=O)N(Cc2ccc(C(F)(F)F)nc2)c2ccc(Cc3c[nH]c4ncc(Cl)cc34)cn2)CC1` [PXDP, 2-(4-methylpiperazin-1-yl)ethyl (5-((5-chloro-1H-pyrrolo[2,3-b]pyridin-3-yl)methyl)pyridin-2-yl)((6-(trifluoromethyl)pyridin-3-yl)methyl)carbamate]: the “degree of fibrosis (Micro-CT imaging)” value in test [1] (setting [3]) is reported as “reduction in the degree of fibrosis”; in test [2] (setting [6]), “reduction in the degree of fibrosis”; in test [2] (Example 6, FIG. 10, PXDP 100 mg/kg, listed as PXPD), “superior to that of nintedanib”. In addition, in test [1] (setting [4]), the “degree of inflammation and fibrosis (H&E and Masson's Trichrome staining)” value was “alleviation of pulmonary fibrosis and inflammation”. The survival rate result in test [1] (PXDP 60 mg/kg) is given as “survival rate increased”. In test [2] (setting [7]), the “degree of inflammation and degree of fibrosis (H&E and Masson's Trichrome staining)” value was “alleviation of fibrosis and inflammation in the lungs”.
For `COc1cc2ncnc(N(C(=O)OCCN3CCN(C)CC3)c3ccc(F)c(Cl)c3)c2cc1NC(=O)/C=C/CN1CCCCC1` [DCTP, 2-(4-methylpiperazin-1-yl)ethyl (E)-(3-chloro-4-fluorophenyl)(7-methoxy-6-(4-(piperidin-1-yl)but-2-enamido)quinazolin-4-yl)carbamate], in test [2] (setting [5]), the “degree of inflammation and degree of fibrosis (H&E and Masson's Trichrome staining)” value was “reduction in fibrosis and inflammation in the lungs”.
